This assay concerns human T helper cells. Briefly: IL-22 expression in human T helper cells activated with anti-CD3/anti-CD28 microparticles and recombinant Delta-like 4. It is filed as cell-based. The conditions noted are these: increasing concentrations of Delta-like 4 on microparticles; no antigen-presenting cells; restimulated after 5 days; FIG. 6. The procedure:
Naive, i.e. antigen-inexperienced, human T helper cells are activated in the absence of antigen-presenting cells with microparticles loaded with stimulating anti-CD3 and anti-CD28 antibodies and increasing concentrations of recombinantly produced Delta-like 4. After 5 days the cells are restimulated and the expression of IL-22 is analyzed.

Take “Delta-like 4: recombinantly produced Notch ligand Delta-like 4, loaded on microparticles”: the “expression of IL-22” value is “concentration-dependent expression of IL-22”.
